Values joined by “and” are separate entries in the source; they are usually repeats but may differ in a detail not shown here. Equal values may be shown once. Read-outs that look alike come from different tables or passages of the source.
Columns and labels:
A2780 = experiment: MTT antiproliferative assay, A2780; format: cell-based, human; settings: for IC50: Homo sapiens, A2780, MTT, 72 h, ovarian cancer cells, read-out: IC50 Values (μM) ± SEM A2780; for Selectivity Index HEK293/A2780: IC50 HEK293 / IC50 A2780
Procedure, shortened: (§1)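 5000 cells/well; overnight attachment; 6 conc. (0.1–30.0 µM), 72 h, 37 °C/5% CO2, MEM + 10% FBS. MTT 4 h → formazan in DMSO → A545 nm vs untreated wells. ≥2 independent runs, 5 parallel wells each.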

SiHa = experiment: MTT antiproliferative assay, SiHa; format: cell-based, human; settings: for IC50: Homo sapiens, SiHa, MTT, 72 h, cervical cancer cells, read-out: IC50 Values (μM) ± SEM SiHa; for Selectivity Index HEK293/SiHa: IC50 HEK293 / IC50 SiHa
Procedure, shortened: as §1

FBCL-2T = experiment: FRET-melting, FBCL-2T; format: binding; settings: ligand 2 μM, DNA 0.2 μM, 10 mM KCl, 90 mM LiCl, pH 7.2
HeLa = experiment: MTT antiproliferative assay, HeLa; format: cell-based, human; settings: for IC50: Homo sapiens, HeLa, MTT, 72 h, cervical cancer cells, read-out: IC50 Values (μM) ± SEM HeLa; for Selectivity Index HEK293/HeLa: IC50 HEK293 / IC50 HeLa
Procedure, shortened: as §1

[1] = system: 24TTG (DNA, G4) TTGGGTTAGGGTTAGGGTTAGGGA; experiment: native ESI-MS; settings: 100 mM NH4+ (ammonium acetate), pH 6.8, 10 µM DNA, 20 µM ligand, first of two successive steps
c-MYC = experiment: Native electrospray mass spectrometry, c-MYC; format: binding; settings: 10 µM DNA, 20 µM ligand; for Bound DNA (%) c-MYC: 100 mM ammonium acetate
Description: (§2) These parameters ensured a good signal intensity without disrupting noncovalent complexes, which was verified using d[G4T4G4]2 as a control. Oligonucleotides were purchased lyophilized, and RP-cartridge purified from Eurogentec (Kanaka Eurogentec, Seraing, Belgium), then buffer exchanged with ammonium acetate (5 M; Sigma-Aldrich, Saint-Quentin-Fallavier, France) using Amicon Ultra (3 K cut-off; Merck Millipore, Cork, Ireland). Sample solutions were prepared by diluting the proper volume of oligonucleotide stock solutions to reach 10 µM of DNA and 20 µM of ligand, in 100 mM ammonium acetate. The solutions were incubated for 16 h at 4 °C before analysis. Kd were calculated as already described.

[2] = system: c-MYC (DNA, G4) TGAGGGTGGGTAGGGTGGGTAA; experiment: native ESI-MS; settings: 100 mM NH4+ (ammonium acetate), pH 6.8, 10 µM DNA, 20 µM ligand, first of two successive steps
FdxT = experiment: FRET-melting, duplex control FdxT; format: binding; settings: ligand 2 μM, DNA 0.2 μM, 10 mM KCl, 90 mM LiCl, pH 7.2, hairpin duplex
BCL-2 = experiment: Native electrospray mass spectrometry, BCL-2; format: binding; settings: 10 µM DNA, 20 µM ligand; for Bound DNA (%) BCL-2: 100 mM ammonium acetate
Description: as §2

Fc-MYCT = experiment: FRET-melting, Fc-MYCT; format: binding; settings: ligand 2 μM, DNA 0.2 μM, K+ conditions, pH 7.2
MDA-MB-231 = experiment: MTT antiproliferative assay, MDA-MB-231; format: cell-based, human; settings: for IC50: Homo sapiens, MDA-MB-231, 72 h, MTT, 72 h, breast cancer cells, read-out: IC50 Values (μM) ± SEM MDA-MB-231; for Selectivity Index HEK293/MDA-MB-231: IC50 HEK293 / IC50 MDA-MB-231
Procedure, shortened: as §1

[3] = system: human telomeric sequence 24TTG; experiment: Native electrospray mass spectrometry, 24TTG; format: binding; settings: 10 µM DNA, 20 µM ligand; for Bound DNA (%) 24TTG: 100 mM ammonium acetate
Description: as §2

MCF-7 = experiment: MTT antiproliferative assay, MCF-7; format: cell-based, human; settings: for IC50: Homo sapiens, MCF7, 72 h, MTT, 72 h, breast cancer cells, read-out: IC50 Values (μM) ± SEM MCF-7; for Selectivity Index HEK293/MCF-7: IC50 HEK293 / IC50 MCF-7
Procedure, shortened: as §1

[4] = system: ds26 (DNA, duplex) CAATCGGATCGAATTCGATCCGATTG; experiment: native ESI-MS; settings: 100 mM NH4+ (ammonium acetate), pH 6.8, 10 µM DNA, 20 µM ligand, first of two successive steps
ds26 = experiment: Native electrospray mass spectrometry, duplex control ds26; format: binding; settings: 10 µM DNA, 20 µM ligand; for Bound DNA (%) ds26: 100 mM ammonium acetate, hairpin duplex control
Description: as §2

[5] = system: human telomeric sequence F21T; experiment: FRET-melting, F21T; format: binding; settings: ligand 2 μM, DNA 0.2 μM, 10 mM KCl, 90 mM LiCl, pH 7.2
[6] = first binding event (1:1 complex), read-out: Kd1 c-MYC
[7] = second binding event (2:1 complex), read-out: Kd2 c-MYC
[8] = first binding event (1:1 complex), read-out: Kd1 BCL-2
[9] = second binding event (2:1 complex), read-out: Kd2 BCL-2
[10] = first binding event (1:1 complex), read-out: Kd1 24TTG
[11] = second binding event (2:1 complex), read-out: Kd2 24TTG
[12] = first binding event, read-out: Kd1 ds26
[13] = second binding event, read-out: Kd2 ds26

CN(C)CCCNCc1ccc(-c2nc(-c3ccc(CNCCCN(C)C)cc3)c3cc(-c4ccccc4)ccc3n2)cc1 [Compound 12b, 2,4-bis{4-[(3-dimethylaminopropyl)aminomethyl]phenyl}-6-phenylquinazoline]
IC50 (A2780): 1.2 ± 0.27 µM | Selectivity Index HEK293/A2780 (A2780): >25.0 | IC50 (SiHa): 1.08 ± 0.1 µM | Selectivity Index HEK293/SiHa (SiHa): >27.8 | ΔT1/2 (°C) FBCL-2T (FBCL-2T): 8.9 ± 0.7 °C | IC50 (HeLa): 0.82 ± 0.31 µM | Selectivity Index HEK293/HeLa (HeLa): >36.6 | Kd1 ([1]; Kd2 1.5, cooperative): 9.5 µM | Bound DNA (%) c-MYC (c-MYC): 70% | Kd (c-MYC; [6]): 5.8 µM | Kd (c-MYC; [7]): 100 µM | Kd1 ([2]; Kd2 100): 5.8 µM | ΔT1/2 (°C) FdxT (FdxT): 0.4 ± 0.3 °C | Bound DNA (%) BCL-2 (BCL-2): 79% | Kd (BCL-2; [8]): 5.6 µM | Kd (BCL-2; [9]): 2.8 µM | ΔT1/2 (°C) Fc-MYCT (Fc-MYCT): 5.8 ± 0.9 °C | IC50 (MDA-MB-231): 0.7 ± 0.16 µM | Selectivity Index HEK293/MDA-MB-231 (MDA-MB-231): >42.8 | Bound DNA (%) 24TTG [3]: 77% | Kd [3, 10]: 9.5 µM | Kd [3, 11]: 1.5 µM | IC50 (MCF-7): 0.58 ± 0.02 µM | Selectivity Index HEK293/MCF-7 (MCF-7): >51.7 | Kd1 ([4]; Kd2 130): 17 µM | Bound DNA (%) ds26 (ds26): 48% | Kd (ds26; [12]): 17 µM | Kd (ds26; [13]): 130 µM

CN1CCN(CCCCNCc2ccc(-c3cc(-c4ccc(CNCCCCN5CCN(C)CC5)cc4)c4cc(-c5ccccc5)ccc4n3)cc2)CC1 [Compound 13d, 2,4-bis{4-[(4-(4-methylpiperazin-1-yl)butyl)aminomethyl]phenyl}-6-phenylquinoline]
IC50 (A2780): 2.1 ± 0.09 µM | IC50 (SiHa): 1.11 ± 0.37 µM | ΔT1/2 (°C) FBCL-2T (FBCL-2T): 5.0 ± 1.1 °C | IC50 (HeLa): 2.27 ± 0.89 µM | Kd1 ([1]; Kd2 83): 29 µM | Bound DNA (%) c-MYC (c-MYC): 44% | Kd (c-MYC; [6]): 20 µM | Kd (c-MYC; [7]): 440 µM | Kd1 ([2]; Kd2 440): 20 µM | ΔT1/2 (°C) FdxT (FdxT): 0.8 ± 0.2 °C | Bound DNA (%) BCL-2 (BCL-2): 33% | Kd (BCL-2; [8]): 53 µM | Kd (BCL-2; [9]): 20 µM | ΔT1/2 (°C) Fc-MYCT (Fc-MYCT): 10.6 ± 0.7 °C | ΔT1/2 (°C) F21T [5]: 8.0 ± 1.5 °C | IC50 (MDA-MB-231): 1.64 ± 0.11 µM | Bound DNA (%) 24TTG [3]: 39% | Kd [3, 10]: 29 µM | Kd [3, 11]: 83 µM | IC50 (MCF-7): 1.62 ± 0.09 µM | Kd1 ([4]; Kd2 460): 85 µM | Bound DNA (%) ds26 (ds26): 18% | Kd (ds26; [12]): 85 µM | Kd (ds26; [13]): 460 µM

CN1CCN(CCCCNCc2ccc(-c3nc(-c4ccc(CNCCCCN5CCN(C)CC5)cc4)c4cc(-c5ccccc5)ccc4n3)cc2)CC1 [Compound 12e, 2,4-bis{4-[(4-(4-methylpiperazin-1-yl)butyl)aminomethyl]phenyl}-6-phenylquinazoline]
IC50 (A2780): 2.19 ± 0.41 µM | IC50 (SiHa): 0.63 ± 0.05 µM | ΔT1/2 (°C) FBCL-2T (FBCL-2T): 22.7 °C and 22.7 ± 0.4 °C | IC50 (HeLa): 1.27 ± 0.02 µM | Kd1 ([1]; Kd2 1.9, cooperative): 14 µM | Bound DNA (%) c-MYC (c-MYC): 75% | Kd (c-MYC; [6]): 4.3 µM | Kd (c-MYC; [7]): 74 µM | Kd1 ([2]; Kd2 74): 4.3 µM | ΔT1/2 (°C) FdxT (FdxT): 5.4 ± 1.6 °C | Bound DNA (%) BCL-2 (BCL-2): 79% | Kd (BCL-2; [8]): 6.2 µM | Kd (BCL-2; [9]): 2.2 µM | ΔT1/2 (°C) Fc-MYCT (Fc-MYCT): 19.5 °C and 19.5 ± 1.0 °C | ΔT1/2 (°C) F21T [5]: 33.9 °C and 33.9 ± 0.5 °C | IC50 (MDA-MB-231): 0.89 ± 0.46 µM | Bound DNA (%) 24TTG [3]: 72% | Kd [3, 10]: 14 µM | Kd [3, 11]: 1.9 µM | IC50 (MCF-7): 1.27 ± 0.01 µM | Kd1 ([4]; Kd2 280): 30 µM | Bound DNA (%) ds26 (ds26): 36% | Kd (ds26; [12]): 30 µM | Kd (ds26; [13]): 280 µM

CN(C)CCCNCc1ccc(-c2cc(-c3ccc(CNCCCN(C)C)cc3)c3cc(-c4ccccc4)ccc3n2)cc1 [Compound 13a, 2,4-bis{4-[(3-dimethylaminopropyl)aminomethyl]phenyl}-6-phenylquinoline]
IC50 (A2780): 0.9 ± 0.04 µM | Selectivity Index HEK293/A2780 (A2780): >33.3 | IC50 (SiHa): 0.99 ± 0.15 µM | Selectivity Index HEK293/SiHa (SiHa): >30.3 | ΔT1/2 (°C) FBCL-2T (FBCL-2T): 7.7 ± 0.6 °C | IC50 (HeLa): 0.5 ± 0.01 µM | Selectivity Index HEK293/HeLa (HeLa): >60.0 | Kd1 ([1]; Kd2 7.1): 3.7 µM | Bound DNA (%) c-MYC (c-MYC): 78% | Kd (c-MYC; [6]): 3.8 µM | Kd (c-MYC; [7]): 36 µM | Kd1 ([2]; Kd2 36): 3.8 µM | ΔT1/2 (°C) FdxT (FdxT): 0.4 ± 0.1 °C | Bound DNA (%) BCL-2 (BCL-2): 92% | Kd (BCL-2; [8]): 1.6 µM | Kd (BCL-2; [9]): 0.75 µM | ΔT1/2 (°C) Fc-MYCT (Fc-MYCT): 7.3 ± 1.0 °C | ΔT1/2 (°C) F21T [5]: 21.5 ± 0.4 °C | IC50 (MDA-MB-231): 0.58 ± 0.02 µM | Selectivity Index HEK293/MDA-MB-231 (MDA-MB-231): >51.7 | Bound DNA (%) 24TTG [3]: 81% | Kd [3, 10]: 3.7 µM | Kd [3, 11]: 7.1 µM | IC50 (MCF-7): 0.54 ± 0.01 µM | Selectivity Index HEK293/MCF-7 (MCF-7): >55.5 | Kd1 ([4]; Kd2 95): 14 µM | Bound DNA (%) ds26 (ds26): 53% | Kd (ds26; [12]): 14 µM | Kd (ds26; [13]): 95 µM

From PMC10819771 (Pharmaceuticals, 2023)
